Assay results from PMC9285882, “A mass spectrometry‐based non‐radioactive differential radial capillary action of ligand assay (DRaCALA) to assess ligand binding to proteins” (Journal of Mass Spectrometry, 2022).

Experiments:
Assay type in all cases: biochemical
[1] = target: T1, YciRFec101 (Escherichia coli, UniProt P77334); assay: DRaCALA, MALDI-TOF MS and […] read-out; conditions: cell lysate; 10 mM Tris pH 8.0, 100 mM NaCl, 5 mM MgCl2 (MALDI) or MgSO4 (32P); room temperature; labelled compound in 32P assay
T1 construct: gene pdeR; full-length GGDEF/EAL protein, cloned in pBAD30, expressed in E. coli Top10, whole cell lysate

[2] = target: BcsE (Escherichia coli, UniProt P37657); assay: DRaCALA, MALDI-TOF MS read-out; conditions: cell lysate; 10 mM Tris pH 8.0, 100 mM NaCl, 5 mM MgCl2; room temperature
[3] = target: T2, YcgR (Escherichia coli, UniProt P76010); assay: DRaCALA, MALDI-TOF MS read-out; conditions: cell lysate; 10 mM Tris pH 8.0, 100 mM NaCl, 5 mM MgCl2; room temperature
T2 construct: cloned in pBAD30, expressed in E. coli Top10, whole cell lysate
T2 sequence (P76010 1-244): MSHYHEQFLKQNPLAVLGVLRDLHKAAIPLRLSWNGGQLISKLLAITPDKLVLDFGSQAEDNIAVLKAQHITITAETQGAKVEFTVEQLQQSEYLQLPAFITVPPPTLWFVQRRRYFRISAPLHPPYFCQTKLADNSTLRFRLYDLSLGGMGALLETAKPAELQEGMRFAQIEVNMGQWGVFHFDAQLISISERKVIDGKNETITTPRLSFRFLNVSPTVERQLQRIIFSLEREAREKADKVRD

T1 sequence (P77334 whole entry): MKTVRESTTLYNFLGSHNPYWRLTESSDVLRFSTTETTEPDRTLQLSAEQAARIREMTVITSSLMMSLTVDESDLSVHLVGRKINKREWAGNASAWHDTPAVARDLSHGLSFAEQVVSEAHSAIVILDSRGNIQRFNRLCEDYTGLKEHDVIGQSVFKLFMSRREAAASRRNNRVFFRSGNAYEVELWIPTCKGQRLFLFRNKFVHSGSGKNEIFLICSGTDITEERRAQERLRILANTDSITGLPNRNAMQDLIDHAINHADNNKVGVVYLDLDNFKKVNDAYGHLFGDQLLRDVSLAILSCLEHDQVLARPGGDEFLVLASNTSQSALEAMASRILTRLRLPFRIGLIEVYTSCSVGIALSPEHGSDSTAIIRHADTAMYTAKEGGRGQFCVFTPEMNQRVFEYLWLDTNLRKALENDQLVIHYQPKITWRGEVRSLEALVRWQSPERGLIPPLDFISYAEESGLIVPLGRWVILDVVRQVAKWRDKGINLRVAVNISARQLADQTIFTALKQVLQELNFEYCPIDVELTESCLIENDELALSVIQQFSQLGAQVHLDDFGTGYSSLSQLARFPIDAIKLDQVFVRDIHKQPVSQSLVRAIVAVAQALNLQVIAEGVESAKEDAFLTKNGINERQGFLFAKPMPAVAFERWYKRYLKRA
BcsE, sequence (P37657 whole entry): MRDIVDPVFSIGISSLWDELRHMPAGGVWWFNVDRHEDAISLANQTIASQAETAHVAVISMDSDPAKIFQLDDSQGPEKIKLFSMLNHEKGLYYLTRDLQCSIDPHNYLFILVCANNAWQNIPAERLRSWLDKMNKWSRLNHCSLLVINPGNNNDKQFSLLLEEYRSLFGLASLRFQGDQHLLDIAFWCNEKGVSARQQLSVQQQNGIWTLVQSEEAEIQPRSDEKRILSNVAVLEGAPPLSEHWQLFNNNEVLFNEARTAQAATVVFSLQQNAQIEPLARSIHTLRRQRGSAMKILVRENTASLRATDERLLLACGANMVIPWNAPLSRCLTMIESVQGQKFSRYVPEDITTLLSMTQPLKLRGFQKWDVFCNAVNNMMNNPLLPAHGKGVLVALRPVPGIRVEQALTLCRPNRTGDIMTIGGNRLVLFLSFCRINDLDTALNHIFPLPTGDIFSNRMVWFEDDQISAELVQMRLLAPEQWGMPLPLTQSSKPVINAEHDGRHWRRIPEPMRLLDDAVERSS

## Nc1nc2c(ncn2[C@@H]2O[C@@H]3COP(=O)(O)O[C@H]4[C@@H](O)[C@H](n5cnc6c(=O)[nH]c(N)nc65)O[C@@H]4COP(=O)(O)O[C@H]3[C@H]2O)c(=O)[nH]1 [cyclic di-GMP]
[1]
  DRaCALA, MALDI-TOF MS and 32P read-out: YciRFec101 showed increased binding to c‐di‐GMP, while mut1 and mut2 were near vector control
[2]
  DRaCALA, MALDI-TOF MS read-out: cell lysates expressing the cyclic di‐GMP receptors and incubated with cyclic di‐GMP showed higher counts
[3]
  DRaCALA, MALDI-TOF MS read-out: cell lysates expressing the cyclic di‐GMP receptors and incubated with cyclic di‐GMP showed higher counts
